US10245261B2, “Substituted indol-5-ol derivatives and their therapeutic applications” (NantBioScience, Inc., priority 2013, dated 2019)

Legend:
Assay in all cases: KinaseProfiler kinase assay
Format in all cases: biochemical
Abl(h) = Abl(h) (Homo sapiens, UniProt P00519)
Aurora-A(h) = target: T1, Aurora-A(h) (Homo sapiens, UniProt O14965); details: read-out: % Inhibition @1 μM Auroro-A
T1 sequence (O14965 1-403): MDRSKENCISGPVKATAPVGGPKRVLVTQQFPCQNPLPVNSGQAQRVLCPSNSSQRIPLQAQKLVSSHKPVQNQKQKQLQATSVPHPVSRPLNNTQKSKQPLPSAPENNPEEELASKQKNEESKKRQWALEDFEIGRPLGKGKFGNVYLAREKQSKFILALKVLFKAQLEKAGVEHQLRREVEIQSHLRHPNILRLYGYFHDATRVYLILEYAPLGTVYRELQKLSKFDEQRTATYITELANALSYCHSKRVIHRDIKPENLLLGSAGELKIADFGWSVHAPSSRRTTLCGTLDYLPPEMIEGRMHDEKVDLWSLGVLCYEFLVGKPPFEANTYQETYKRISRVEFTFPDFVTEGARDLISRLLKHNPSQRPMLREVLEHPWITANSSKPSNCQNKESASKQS
Protocol: (§1) This example tests the inhibitory properties of representative compounds of the invention in c-Src kinase, Aurora-A kinase, Flt3 kinase, Ret kinase and TrkA Kinase assays (see, Daniele Fancelli et al, J. Med. Chem., 2006, 49 (24), pp 7247-7251). The KinaseProfiler™ Service Assay Protocols (Millipore) was used to test the kinase inhibiting activity of novel compounds from this invention. To do this, the buffer composition was as: 20 mM MOPS, 1 mM EDTA, 0.01% Brij-35, 5% Glycerol, 0.1% β-mercaptoethanol, 1 mg/mL BSA. Test compounds were initially dissolved in DMSO at the desired concentration, then serially diluted to the kinase assay buffer. In a final reaction volume of 25 μL, Aurora-A(h) (5-10 mU) is incubated with 8 mM MOPS pH 7.0, 0.2 mM EDTA, 200 μM LRRASLG (Kemptide), 10 mM MgAcetate and [γ^33P-ATP]. The reaction was initiated by the addition of the MgATP mix. After incubation for 40 minute at room temperature, the reaction was stopped by addition of 5 μL of a 3% phosphoric acid solution. 10 μL of the reaction was then spotted onto a P30 filtermat and washed three times for 5 minutes in 50 mM phosphoric acid and once in methanol prior to drying and scintillation counting. Wells containing substrate but no kinase and wells containing a phosphopeptide control were used to set 0% and 100% phosphorylation value, respectively.
(§2) The Kinase Hotspot℠ kinase assay was also used to test the compounds for IC50 or % inhibitions (Reaction Biology Corp.). Inhibitory IC50 values were determined by titration of compound at the optimal kinase concentration (Kinase EC50).

Flt3(h) = target: T2, Flt3(h) (Homo sapiens, UniProt P36888)
T2 sequence (P36888 27-993): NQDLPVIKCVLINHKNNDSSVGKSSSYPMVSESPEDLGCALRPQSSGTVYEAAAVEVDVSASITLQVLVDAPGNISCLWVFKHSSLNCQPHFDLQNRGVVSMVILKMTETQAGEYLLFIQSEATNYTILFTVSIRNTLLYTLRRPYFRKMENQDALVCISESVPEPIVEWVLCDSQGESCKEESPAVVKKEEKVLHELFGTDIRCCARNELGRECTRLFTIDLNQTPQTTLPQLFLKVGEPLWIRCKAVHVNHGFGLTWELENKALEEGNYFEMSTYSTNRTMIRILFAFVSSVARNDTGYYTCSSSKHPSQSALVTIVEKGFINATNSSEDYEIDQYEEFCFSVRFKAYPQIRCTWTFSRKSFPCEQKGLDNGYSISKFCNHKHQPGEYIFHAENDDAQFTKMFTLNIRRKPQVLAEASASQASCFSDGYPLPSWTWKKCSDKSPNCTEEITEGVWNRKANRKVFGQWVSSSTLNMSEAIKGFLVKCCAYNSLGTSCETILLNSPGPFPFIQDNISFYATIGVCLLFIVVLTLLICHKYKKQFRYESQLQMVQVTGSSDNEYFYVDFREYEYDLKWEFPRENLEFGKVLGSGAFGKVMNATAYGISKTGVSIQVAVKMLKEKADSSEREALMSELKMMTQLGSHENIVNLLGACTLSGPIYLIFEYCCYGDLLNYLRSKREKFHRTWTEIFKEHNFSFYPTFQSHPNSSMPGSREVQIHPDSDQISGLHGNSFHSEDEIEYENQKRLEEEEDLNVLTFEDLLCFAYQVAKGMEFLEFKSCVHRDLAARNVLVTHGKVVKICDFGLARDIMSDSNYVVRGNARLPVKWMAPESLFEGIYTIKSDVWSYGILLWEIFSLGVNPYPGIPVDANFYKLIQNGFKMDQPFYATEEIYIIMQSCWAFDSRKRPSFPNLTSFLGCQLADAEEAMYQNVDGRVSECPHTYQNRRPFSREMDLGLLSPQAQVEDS
Protocol: as §1, §2

Ret(h) = Ret(h) (Homo sapiens, UniProt P07949)
Protocol: as §1, §2

cSRC(h) = cSRC(h) (Homo sapiens, UniProt P12931)
Protocol: as §1, §2

KDR(h) = KDR(h) (Homo sapiens, UniProt P35968)
Sequence of KDR(h) (P35968 20-1356): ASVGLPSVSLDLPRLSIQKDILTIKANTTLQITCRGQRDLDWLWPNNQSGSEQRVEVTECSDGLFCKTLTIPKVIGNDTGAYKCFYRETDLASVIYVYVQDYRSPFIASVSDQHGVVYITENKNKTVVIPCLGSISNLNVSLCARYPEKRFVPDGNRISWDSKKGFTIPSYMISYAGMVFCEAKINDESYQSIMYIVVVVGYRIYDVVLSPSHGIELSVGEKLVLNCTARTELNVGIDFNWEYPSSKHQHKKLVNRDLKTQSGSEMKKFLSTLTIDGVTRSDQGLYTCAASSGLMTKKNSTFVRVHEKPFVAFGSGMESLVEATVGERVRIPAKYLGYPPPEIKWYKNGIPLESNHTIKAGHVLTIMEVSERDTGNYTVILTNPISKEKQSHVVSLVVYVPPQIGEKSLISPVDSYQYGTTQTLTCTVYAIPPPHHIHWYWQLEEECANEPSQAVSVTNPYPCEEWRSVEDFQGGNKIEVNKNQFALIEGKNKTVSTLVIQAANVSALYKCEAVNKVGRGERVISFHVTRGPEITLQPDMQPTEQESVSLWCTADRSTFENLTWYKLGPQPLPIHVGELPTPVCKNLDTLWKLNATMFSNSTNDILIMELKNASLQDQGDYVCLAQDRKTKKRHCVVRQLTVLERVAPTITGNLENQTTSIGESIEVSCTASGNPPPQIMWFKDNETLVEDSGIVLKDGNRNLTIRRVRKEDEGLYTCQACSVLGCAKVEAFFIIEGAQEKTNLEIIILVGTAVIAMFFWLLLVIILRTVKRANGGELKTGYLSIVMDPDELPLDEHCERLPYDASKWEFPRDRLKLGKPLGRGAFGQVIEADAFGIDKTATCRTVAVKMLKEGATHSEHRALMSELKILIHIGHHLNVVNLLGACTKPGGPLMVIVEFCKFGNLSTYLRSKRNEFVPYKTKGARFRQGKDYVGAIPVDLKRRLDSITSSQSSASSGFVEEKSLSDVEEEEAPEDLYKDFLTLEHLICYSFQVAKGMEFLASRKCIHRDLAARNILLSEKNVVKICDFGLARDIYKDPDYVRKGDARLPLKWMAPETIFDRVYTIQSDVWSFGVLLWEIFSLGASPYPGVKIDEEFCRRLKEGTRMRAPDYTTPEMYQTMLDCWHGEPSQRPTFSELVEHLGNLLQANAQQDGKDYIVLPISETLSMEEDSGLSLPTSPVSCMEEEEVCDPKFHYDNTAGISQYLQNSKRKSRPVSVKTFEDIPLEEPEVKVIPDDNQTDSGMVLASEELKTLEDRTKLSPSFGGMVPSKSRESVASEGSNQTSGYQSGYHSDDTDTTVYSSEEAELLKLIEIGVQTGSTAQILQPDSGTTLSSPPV

Sequence of cSRC(h) (P12931 whole entry): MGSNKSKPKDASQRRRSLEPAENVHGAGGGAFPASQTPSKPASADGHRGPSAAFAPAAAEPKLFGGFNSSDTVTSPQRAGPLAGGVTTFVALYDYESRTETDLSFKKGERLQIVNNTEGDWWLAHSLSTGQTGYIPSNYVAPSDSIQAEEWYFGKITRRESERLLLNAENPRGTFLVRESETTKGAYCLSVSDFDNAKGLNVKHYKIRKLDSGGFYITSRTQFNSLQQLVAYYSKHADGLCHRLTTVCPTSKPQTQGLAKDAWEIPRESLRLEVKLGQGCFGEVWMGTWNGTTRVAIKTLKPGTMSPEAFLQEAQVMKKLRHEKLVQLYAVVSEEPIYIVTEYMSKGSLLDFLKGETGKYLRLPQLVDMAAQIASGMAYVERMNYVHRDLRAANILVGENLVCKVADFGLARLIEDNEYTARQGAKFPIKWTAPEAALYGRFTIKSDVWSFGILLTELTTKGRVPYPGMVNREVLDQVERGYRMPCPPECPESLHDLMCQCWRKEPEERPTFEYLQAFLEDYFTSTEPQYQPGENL
Sequence of Abl(h) (P00519 whole entry): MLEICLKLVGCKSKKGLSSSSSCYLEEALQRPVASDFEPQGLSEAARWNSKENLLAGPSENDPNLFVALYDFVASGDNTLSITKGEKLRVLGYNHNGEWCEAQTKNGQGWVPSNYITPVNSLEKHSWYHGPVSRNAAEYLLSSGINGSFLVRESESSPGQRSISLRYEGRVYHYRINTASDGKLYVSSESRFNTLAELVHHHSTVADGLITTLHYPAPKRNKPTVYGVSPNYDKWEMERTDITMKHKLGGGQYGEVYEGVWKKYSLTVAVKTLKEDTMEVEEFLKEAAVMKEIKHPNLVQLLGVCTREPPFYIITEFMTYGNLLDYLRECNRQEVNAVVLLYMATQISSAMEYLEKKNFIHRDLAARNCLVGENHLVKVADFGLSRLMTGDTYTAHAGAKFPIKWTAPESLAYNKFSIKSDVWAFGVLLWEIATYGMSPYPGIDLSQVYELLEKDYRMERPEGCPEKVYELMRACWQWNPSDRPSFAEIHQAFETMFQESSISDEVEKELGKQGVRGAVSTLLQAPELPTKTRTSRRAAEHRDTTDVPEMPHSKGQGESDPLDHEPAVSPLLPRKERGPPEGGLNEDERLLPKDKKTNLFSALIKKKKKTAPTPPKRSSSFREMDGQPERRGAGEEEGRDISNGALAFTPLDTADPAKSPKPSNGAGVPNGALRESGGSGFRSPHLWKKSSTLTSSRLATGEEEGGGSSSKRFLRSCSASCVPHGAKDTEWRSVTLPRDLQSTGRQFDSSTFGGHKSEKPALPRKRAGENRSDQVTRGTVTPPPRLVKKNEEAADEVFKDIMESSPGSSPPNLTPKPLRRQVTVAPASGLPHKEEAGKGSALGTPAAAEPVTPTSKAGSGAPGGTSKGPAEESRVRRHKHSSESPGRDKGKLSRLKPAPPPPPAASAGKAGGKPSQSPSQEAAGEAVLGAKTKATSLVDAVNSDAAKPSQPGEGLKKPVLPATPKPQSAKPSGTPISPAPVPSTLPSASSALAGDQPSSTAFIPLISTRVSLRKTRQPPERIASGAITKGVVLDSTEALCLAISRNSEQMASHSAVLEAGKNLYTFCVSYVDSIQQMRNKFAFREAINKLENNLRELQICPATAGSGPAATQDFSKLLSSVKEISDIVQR
Sequence of Ret(h) (P07949 29-1114): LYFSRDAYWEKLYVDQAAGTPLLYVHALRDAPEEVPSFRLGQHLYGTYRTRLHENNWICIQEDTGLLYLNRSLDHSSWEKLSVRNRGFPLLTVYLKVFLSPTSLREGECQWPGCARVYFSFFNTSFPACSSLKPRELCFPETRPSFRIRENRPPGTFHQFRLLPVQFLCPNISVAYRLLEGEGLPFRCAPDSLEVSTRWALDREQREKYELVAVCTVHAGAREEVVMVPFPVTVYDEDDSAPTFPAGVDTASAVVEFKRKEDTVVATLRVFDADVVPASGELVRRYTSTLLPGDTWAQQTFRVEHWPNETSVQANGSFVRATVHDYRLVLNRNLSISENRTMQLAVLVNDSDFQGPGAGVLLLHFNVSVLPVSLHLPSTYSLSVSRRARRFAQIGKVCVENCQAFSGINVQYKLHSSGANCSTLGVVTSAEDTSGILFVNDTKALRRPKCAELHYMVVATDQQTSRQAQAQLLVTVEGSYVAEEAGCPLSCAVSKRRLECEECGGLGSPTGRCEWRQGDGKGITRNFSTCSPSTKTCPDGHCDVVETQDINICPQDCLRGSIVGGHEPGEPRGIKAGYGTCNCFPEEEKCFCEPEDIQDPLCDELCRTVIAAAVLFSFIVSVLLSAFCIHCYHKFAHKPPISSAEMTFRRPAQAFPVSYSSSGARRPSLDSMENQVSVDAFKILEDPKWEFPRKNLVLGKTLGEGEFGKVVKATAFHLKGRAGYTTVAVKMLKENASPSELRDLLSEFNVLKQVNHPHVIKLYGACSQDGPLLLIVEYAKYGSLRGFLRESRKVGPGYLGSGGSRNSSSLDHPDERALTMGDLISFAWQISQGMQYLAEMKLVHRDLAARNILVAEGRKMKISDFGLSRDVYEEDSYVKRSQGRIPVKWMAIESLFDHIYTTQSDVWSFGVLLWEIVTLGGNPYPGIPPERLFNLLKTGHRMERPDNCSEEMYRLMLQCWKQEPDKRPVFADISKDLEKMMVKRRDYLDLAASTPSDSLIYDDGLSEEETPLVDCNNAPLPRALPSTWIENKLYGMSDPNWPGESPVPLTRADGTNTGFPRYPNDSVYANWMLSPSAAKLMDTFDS

SMILES	inhibition at 1 µM (Abl(h)) [%]	inhibition at 1 µM (Aurora-A(h)) [%]	inhibition at 1 µM (Flt3(h)) [%]	inhibition at 1 µM (Ret(h)) [%]	inhibition at 1 µM (cSRC(h)) [%]	inhibition at 1 µM (KDR(h)) [%]
C/C=C/c1cc(Nc2cc(N3CCOCC3)nc(Oc3ccc4[nH]c(C)cc4c3F)n2)n[nH]1 [Compound 67]	112	99	100	100	99	91
C/C=C/c1cc(Nc2cc(N3CCC(O)C3)nc(Oc3cc(F)c4[nH]c(C)cc4c3F)n2)n[nH]1 (stereo not drawn) [Compound 92]	111	100	100	102	100	96
CCN1CCN(c2cc(Nc3cc(C)[nH]n3)nc(Oc3cc(F)c4[nH]c(C)cc4c3F)n2)CC1 [Compound 103]	113	97	99	101	96	91
C/C=C/c1cc(Nc2cc(N3CCC(OC)C3)nc(Oc3cc(F)c4[nH]c(C)cc4c3F)n2)n[nH]1 (stereo not drawn) [Compound 93]	111	102	100	102	101	95
Cc1cc2c(F)c(Oc3nc(Nc4cc(C5CC5)[nH]n4)cc(N4CCC(N(C)C)C4)n3)ccc2[nH]1 (stereo not drawn) [Compound 17]	108	100	100	98	98	93
COCCN1CCN(c2cc(Nc3cc(C4CC4)[nH]n3)nc(Oc3ccc4[nH]c(C)cc4c3F)n2)CC1 [Compound 28]	108	101	100	101	96	89
C/C=C/c1cc(Nc2cc(N3CCN(C)CC3)nc(Oc3cc(F)c4[nH]c(C)cc4c3F)n2)n[nH]1 [Compound 87]	112	99	100	83	95	95
Cc1cc2c(F)c(Oc3nc(Nc4cc(C5CC5)[nH]n4)cc(N4CCN(C)CC4)n3)cc(F)c2[nH]1 [Compound 81]	110	99	101	99	99	96
Cc1cc2c(F)c(Oc3nc(Nc4cc(C5CC5)[nH]n4)cc(N4CCOC(CN(C)C)C4)n3)ccc2[nH]1 (stereo not drawn) [Compound 30]	110	100	100	101	99	94
Cc1cc2c(F)c(Oc3nc(Nc4cc(C5CC5)[nH]n4)cc(N4CCN(CC(F)(F)F)CC4)n3)ccc2[nH]1 [Compound 38]	108	80	98	101	98	95
Cc1cc(Nc2cc(N3CCOCC3)nc(Oc3cc(F)c4[nH]c(C)cc4c3F)n2)n[nH]1 [Compound 107]	111	95	98	99	96	90
C/C=C/c1cc(Nc2cc(N3CCC(O)CC3)nc(Oc3ccc4[nH]c(C)cc4c3F)n2)n[nH]1 [Compound 59]	112	94	99	102	100	96
Cc1cc(Nc2cc(N3CCN(CCO)CC3)nc(Oc3cc(F)c4[nH]c(C)cc4c3F)n2)n[nH]1 [Compound 105]	112	98	99	101	96	91
C/C=C/c1cc(Nc2cc(N3CCC(OC)C3)nc(Oc3ccc4[nH]c(C)cc4c3F)n2)n[nH]1 (stereo not drawn) [Compound 60]	111	97	99	102	101	95
Cc1cc2c(F)c(Oc3nc(Nc4cc(C5CC5)[nH]n4)cc(N4CCOCC4)n3)ccc2[nH]1 [Compound 13]	112	100	101	100	100	96
C/C=C/c1cc(Nc2cc(N3CCC(OC)CC3)nc(Oc3cc(F)c4[nH]c(C)cc4c3F)n2)n[nH]1 [Compound 96]	110	98	99	102	101	95
C/C=C/c1cc(Nc2cc(N3CCN(C)CC3)nc(Oc3ccc4[nH]c(C)cc4c3Cl)n2)n[nH]1 [Compound 112]	113	100	102	102	104	91
C/C=C/c1cc(Nc2cc(N3CCC(N(CC)CC)C3)nc(Oc3ccc4[nH]c(C)cc4c3F)n2)n[nH]1 (stereo not drawn) [Compound 62]	111	102	99	102	101	96
C/C=C/c1cc(Nc2cc(N3CCOCC3)nc(Oc3cc(F)c4[nH]c(C)cc4c3F)n2)n[nH]1 [Compound 89]	112	100	100	99	100	96
Cc1cc2c(F)c(Oc3nc(Nc4cc(C5CC5)[nH]n4)cc(N4CCN(C)CC4)n3)ccc2n1C [Compound 122]	109	101	102	101	104	91
CC(=O)N1CCN(c2cc(Nc3cc(C4CC4)[nH]n3)nc(Oc3ccc4[nH]c(C)cc4c3F)n2)CC1 [Compound 18]	107	100	100	97	99	93
C/C=C/c1cc(Nc2cc(N3CCN(C)CC3)nc(Oc3ccc4c(cc(C)n4C)c3F)n2)n[nH]1 [Compound 120]	115	101	101	101	104	91
